PMC9088311, “Cyclic Thiosulfonates for Thiol-Mediated Uptake: Cascade Exchangers, Transporters, Inhibitors” (JACS Au, 2022)
In brackets after ≈: the same amount, converted by molar mass. Like-named read-outs stand apart in the source and are kept apart here.

What was measured:
[1] = biological target: cathepsin B (Homo sapiens, UniProt P07858); assay: Cathepsin B inhibition (preliminary, not shown); assay type: biochemical; settings: 50 μM; preliminary results
[2] = biological target: cathepsin L (Homo sapiens, UniProt P07711); assay: Cathepsin L inhibition (preliminary, not shown); assay type: biochemical; settings: 50 μM; preliminary results
Chain of cathepsin L (P07711 114-333, species assumed): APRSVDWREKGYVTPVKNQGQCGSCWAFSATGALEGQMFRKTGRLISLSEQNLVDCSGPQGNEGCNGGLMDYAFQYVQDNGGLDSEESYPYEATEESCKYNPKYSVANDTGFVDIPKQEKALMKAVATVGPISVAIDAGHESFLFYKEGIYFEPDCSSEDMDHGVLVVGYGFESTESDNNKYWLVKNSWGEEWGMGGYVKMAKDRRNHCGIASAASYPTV

[3] = test system: HK cells, transporter 28; assay: HCHT imaging: inhibition of cytosolic delivery of CTO transporter 28; assay type: cell-based, Human; settings: inhibitor 1 h; for IC15 / IC50: Homo sapiens; for IC15: read-out: MIC (concentration needed to reach 15% inhibition), transporter 28 5 μM
[4] = test system: trypsin; assay: Trypsin inhibition (preliminary, not shown); assay type: biochemical; settings: 50 μM; preliminary results
[5] = Decarboxylation/stability of cyclic carbonate 11 in deuterated buffer; assay type: physicochemical; settings: for t50 (decarboxylation of 11 to 12): deuterated buffer/DMSO-d6 95:5, rt
Description: Figure 3 (A) Comparison of ring-opening rate constants (k^O) for the exchange reactions of 2, 3, and 11–18 with 10 (Table 1); (a) deuterated buffer/DMSO-d6 95:5, rt, t50 = <15 min, 84 min, 18 h, and ≫24 h at pD 7.9, 6.7, 5.4, and 4.7, respectively. (B) Dynamic covalent ring opening of CTO 3 and thiol 10 to give product 9. (C) Original kinetic data for the equilibration of 3 with 10 at pD 2.7 in deuterated phosphate buffer/DMSO-d6 9:1. Gold triangles: 3; purple circles: 9; filled diamonds: 10; empty diamonds: homo-disulfide of 10. (D) Dependence of K (filled circles) and rate constants (relative, k at 90% D2O as 1, k^O filled diamonds, k^C empty diamonds) for 3 with 10 at pD 2.7 (estimate) on solvent polarity. (E–G) Fluoride complexes of 1,2-dithiane 1,1-dioxide (E), 1,2-dithiane 1-oxide (F), and 1,2-dithiane (G), calculated with M06-2X/6-311++G** (green: F^–, yellow: S, red: O, gray: C, white: H). (H, I) Chloride complexes of 3 (H) and 1 (I, green: Cl^–, in parentheses: bond length for F^–). (J) Fragmentation of 11 with 10; (b) 10, DMSO-d6, rt.
The strained cyclic carbonate 11 was considered to accelerate CTO opening and further stabilize the opened form (entry 12). However, at pD 7.9, carbonate 11 decarboxylated within 15 min to CTO alkene 12. This degradation decelerated with decreasing pD to afford stable carbonate 11 for at least 1 day at pD 4.7 (Figure 3A). Ring opening of 11 was too fast even at pD 2.7, it proceeded to near completion with a >100× higher rate than 3. Decarboxylated alkene 12 reacted also very fast, the apparently lower rate is the consequence of more favorable ring closure back to 12 due to preorganization by the cis alkene (entry 13). The alternative Michael addition of thiol 10 to alkene 12 was not observed (Figure S12).

[6] = in vitro; settings: human
[7] = test system: HK cells, transporter 31; settings: transporter 31 10 μM, pre-incubation (P), cited from earlier work; for IC50: read-out: IC50 (concentration needed to reach 50% inhibition)
[8] = test system: HeLa Kyoto cells; settings: with transporter 31; pre-incubation (P); cited from earlier work
[9] = test system: HK cells, transporter 32; design: method as in PMID 34173696; settings: transporter 32 0.5 or 1 μM, pre-incubation (P), cited from earlier work
[10] = transporter 28 5 μM, co-incubation (C)
[11] = read-out: IC50 (concentration needed to reach 50% inhibition), transporter 28 5 μM, pre-incubation (P)

Row | Structure (SMILES) | inhibition of cathepsin B (in words) [1] | inhibition of cathepsin L (in words) [2] | IC15 ([3]; 1 h, co-incubation (C)) [µM] | MIC (concentration needed to reach 15% inhibition) [3, 10] [µM] | inhibition of trypsin (in words) [4] | viability at 7 h, 50 µM [6] [%] | IC50 [7] [µM] | MIC (concentration needed to reach 15% inhibition) [7] [µM] | IC15 ([3]; 1 h, pre-incubation (P)) [µM] | IC50 [3, 11] [µM] | RV50 (concentration needed to lower relative viability by 50%) [8] [µM] | further results
1 | O=S1(=O)C=C[C@@H](O)CS1 [Compound 12] | inhibit only cathepsin B | inhibit only cathepsin B | 4.8 | 5 | inhibit only cathepsin B |  |  |  |  |  |  | IC50 ([3]; read-out: IC50 (concentration needed to reach 50% inhibition), transporter 28 5 μM, co-incubation (C)): 60 µM
2 | O=C1O[C@H]2CSS(=O)(=O)C[C@H]2O1 [Compound 11] |  |  | < 1 | <1 |  | 84 |  |  |  |  |  | t50 (decarboxylation of 11 to 12) ([5]; pD 4.7): > 24 h; t50 (decarboxylation of 11 to 12) ([5]; pD 5.4): 18 h; t50 (decarboxylation of 11 to 12) ([5]; pD 6.7): 1.4 h; t50 (decarboxylation of 11 to 12) ([5]; pD 7.9): < 0.25 h; time stable ([5]; pD 4.7): at least 1 day; time of decarboxylation to CTO alkene 12 ([5]; pD 7.9): ≤ 15 min; IC50 ([3]; 1 h, read-out: IC50 (concentration needed to reach 50% inhibition), transporter 28 5 μM, co-incubation (C)): 70 ± 20 µM
3 | [O-][S+]1C[C@@H](O)[C@@H](O)CS1 (stereo partly drawn) [Compound 2] |  |  |  |  |  |  | > 5000 | 800 (≈ 135 µg/mL) | > 50 | > 100 | 4400 | MIC (concentration needed to reach 15% inhibition) ([3]; transporter 28 5 μM, pre-incubation (P)): >50 µM
4 | O=S1(=O)C[C@H](O)[C@H](O)CS1 (stereo in doubt) [Compound 3, (4S,5R)-4,5-dihydroxy-1,2-dithiane-1,1-dioxide] | inhibits | not L |  |  | inhibits | 81 | > 1000 | 200 (≈ 36.8 µg/mL) | 5 | 60 | 1300 | IC50 ([9]; read-out: IC50 (concentration needed to reach 50% inhibition)): 550 µM; MIC (concentration needed to reach 15% inhibition) [9]: 250 µM (≈ 46.1 µg/mL)
